Results: PubChem BioAssay (NCI)
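Protocol summary: plate cells (96-well), add compound at 5 concentrations, incubate 48 h, interpolate endpoints linearly. Here, GI50 denotes the concentration required for 50% inhibition of growth. TGI: concentration producing complete growth inhibition.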

Tests used:
Experiment in all cases: NCI-60 cell line screen, 48 h
HT29 colon = test system: HT29 colon
MCF7 breast = test system: MCF7 breast
LOX IMVI melanoma = test system: LOX IMVI melanoma
TK-10 renal = test system: TK-10 renal
UACC-257 melanoma = test system: UACC-257 melanoma
OVCAR-5 ovarian = test system: OVCAR-5 ovarian
SF-268 CNS = test system: SF-268 CNS
OVCAR-8 ovarian = test system: OVCAR-8 ovarian
NCI-H522 lung = test system: NCI-H522 lung
OVCAR-3 ovarian = test system: OVCAR-3 ovarian
CAKI-1 renal = test system: CAKI-1 renal
UACC-62 melanoma = test system: UACC-62 melanoma
PC-3 prostate = test system: PC-3 prostate
A498 renal = test system: A498 renal
MDA-MB-468 breast = test system: MDA-MB-468 breast
SF-539 CNS = test system: SF-539 CNS
DU-145 prostate = test system: DU-145 prostate
SN12C renal = test system: SN12C renal
NCI-H23 lung = test system: NCI-H23 lung
CCRF-CEM leukemia = test system: CCRF-CEM leukemia
HOP-92 NSCLC = test system: HOP-92 NSCLC
U251 CNS = test system: U251 CNS
HCC-2998 colon = test system: HCC-2998 colon
RPMI-8226 leukemia = test system: RPMI-8226 leukemia
K-562 leukemia = test system: K-562 leukemia
MDA-MB-435 = test system: MDA-MB-435
SK-MEL-5 melanoma = test system: SK-MEL-5 melanoma
HL-60(TB) leukemia = test system: HL-60(TB) leukemia
BT-549 breast = test system: BT-549 breast
NCI-H460 lung = test system: NCI-H460 lung
ACHN renal = test system: ACHN renal
NCI-H226 lung = test system: NCI-H226 lung
RXF 393 renal = test system: RXF 393 renal
KM12 colon = test system: KM12 colon
M14 melanoma = test system: M14 melanoma
MALME-3M melanoma = test system: MALME-3M melanoma
HCT-116 colon = test system: HCT-116 colon
SF-295 CNS = test system: SF-295 CNS
HCT-15 colon = test system: HCT-15 colon
SR leukemia = test system: SR leukemia
SW-620 colon = test system: SW-620 colon
HS 578T breast = test system: HS 578T breast
IGROV1 ovarian = test system: IGROV1 ovarian
HOP-62 NSCLC = test system: HOP-62 NSCLC
NCI/ADR-RES ovarian = test system: NCI/ADR-RES ovarian
SNB-19 CNS = test system: SNB-19 CNS
SK-MEL-28 melanoma = test system: SK-MEL-28 melanoma
786-0 renal = test system: 786-0 renal
SK-OV-3 ovarian = test system: SK-OV-3 ovarian
MOLT-4 leukemia = test system: MOLT-4 leukemia
T-47D breast = test system: T-47D breast
A549 NSCLC = test system: A549 NSCLC
OVCAR-4 ovarian = test system: OVCAR-4 ovarian
EKVX NSCLC = test system: EKVX NSCLC
COLO 205 colon = test system: COLO 205 colon

Cc1nn(-c2ccccc2)c2nc(C)n(CC(=O)N/N=C/c3ccccc3O)c(=O)c12
GI50 (HT29 colon): 4.91 µM
TGI (HT29 colon): 20.5 µM
GI50 (MCF7 breast): 3.62 µM
TGI (MCF7 breast): 31.1 µM
GI50 (LOX IMVI melanoma): 1.78 µM
TGI (LOX IMVI melanoma): 14 µM
GI50 (TK-10 renal): 7.5 µM
TGI (TK-10 renal): 45.4 µM
GI50 (UACC-257 melanoma): 5.46 µM
TGI (UACC-257 melanoma): 31.3 µM
GI50 (OVCAR-5 ovarian): 8.89 µM
TGI (OVCAR-5 ovarian): 51.4 µM
GI50 (SF-268 CNS): 3.31 µM
TGI (SF-268 CNS): > 100 µM
GI50 (OVCAR-8 ovarian): 3.86 µM
TGI (OVCAR-8 ovarian): 21.1 µM
GI50 (NCI-H522 lung): 3.4 µM
TGI (NCI-H522 lung): 22.2 µM
GI50 (OVCAR-3 ovarian): 2.66 µM
TGI (OVCAR-3 ovarian): 28 µM
GI50 (CAKI-1 renal): 4.93 µM
TGI (CAKI-1 renal): 26.2 µM
GI50 (UACC-62 melanoma): 3.02 µM
TGI (UACC-62 melanoma): 12.5 µM
GI50 (PC-3 prostate): 4.47 µM
TGI (PC-3 prostate): 29.3 µM
GI50 (A498 renal): 19.3 µM
TGI (A498 renal): 83.1 µM
GI50 (MDA-MB-468 breast): 3.36 µM
TGI (MDA-MB-468 breast): 19.4 µM
GI50 (SF-539 CNS): 4.46 µM
TGI (SF-539 CNS): 26.9 µM
GI50 (DU-145 prostate): 6.32 µM
TGI (DU-145 prostate): > 100 µM
GI50 (SN12C renal): 5.64 µM
TGI (SN12C renal): 46 µM
GI50 (NCI-H23 lung): 4.62 µM
TGI (NCI-H23 lung): 22.4 µM
GI50 (CCRF-CEM leukemia): 2.09 µM
TGI (CCRF-CEM leukemia): 16.8 µM
GI50 (HOP-92 NSCLC): 3.29 µM
TGI (HOP-92 NSCLC): 20.6 µM
GI50 (U251 CNS): 3.93 µM
TGI (U251 CNS): 19.6 µM
GI50 (HCC-2998 colon): 4.29 µM
TGI (HCC-2998 colon): 27.6 µM
GI50 (RPMI-8226 leukemia): 5.53 µM
TGI (RPMI-8226 leukemia): 48.4 µM
GI50 (K-562 leukemia): 3.48 µM
TGI (K-562 leukemia): > 100 µM
GI50 (MDA-MB-435): 8.63 µM
TGI (MDA-MB-435): > 100 µM
GI50 (SK-MEL-5 melanoma): 3.75 µM
TGI (SK-MEL-5 melanoma): 19.4 µM
GI50 (HL-60(TB) leukemia): 2.13 µM
TGI (HL-60(TB) leukemia): 7.52 µM
GI50 (BT-549 breast): 3.74 µM
TGI (BT-549 breast): 25.4 µM
GI50 (NCI-H460 lung): 3.59 µM
TGI (NCI-H460 lung): 16.2 µM
GI50 (ACHN renal): 2.62 µM
TGI (ACHN renal): 14.7 µM
GI50 (NCI-H226 lung): 12.9 µM
TGI (NCI-H226 lung): 38.9 µM
GI50 (RXF 393 renal): 4.92 µM
TGI (RXF 393 renal): 24.1 µM
GI50 (KM12 colon): 4.12 µM
TGI (KM12 colon): > 100 µM
GI50 (M14 melanoma): 2.89 µM
TGI (M14 melanoma): 15.6 µM
GI50 (MALME-3M melanoma): 4.33 µM
TGI (MALME-3M melanoma): 30 µM
GI50 (HCT-116 colon): 4.85 µM
TGI (HCT-116 colon): 18.9 µM
GI50 (SF-295 CNS): 4.79 µM
TGI (SF-295 CNS): 22.6 µM
GI50 (HCT-15 colon): 2.26 µM
TGI (HCT-15 colon): > 100 µM
GI50 (SR leukemia): 2.43 µM
TGI (SR leukemia): 10.8 µM
GI50 (SW-620 colon): 4.22 µM
TGI (SW-620 colon): > 100 µM
GI50 (HS 578T breast): 9.4 µM
TGI (HS 578T breast): 70.9 µM
GI50 (IGROV1 ovarian): 6.36 µM
TGI (IGROV1 ovarian): 66.3 µM
GI50 (HOP-62 NSCLC): 4.63 µM
TGI (HOP-62 NSCLC): 21.4 µM
GI50 (NCI/ADR-RES ovarian): 3.79 µM
TGI (NCI/ADR-RES ovarian): 17.9 µM
GI50 (SNB-19 CNS): 7.44 µM
TGI (SNB-19 CNS): 39.2 µM
GI50 (SK-MEL-28 melanoma): 4.58 µM
TGI (SK-MEL-28 melanoma): 33.7 µM
GI50 (786-0 renal): 6.16 µM
TGI (786-0 renal): 31.8 µM
GI50 (SK-OV-3 ovarian): 6.5 µM
TGI (SK-OV-3 ovarian): 28.5 µM
GI50 (MOLT-4 leukemia): 2.59 µM
TGI (MOLT-4 leukemia): 10.7 µM
GI50 (T-47D breast): 4.41 µM
TGI (T-47D breast): 36.9 µM
GI50 (A549 NSCLC): 6.12 µM
TGI (A549 NSCLC): 21.1 µM
GI50 (OVCAR-4 ovarian): 3.18 µM
TGI (OVCAR-4 ovarian): 42.8 µM
GI50 (EKVX NSCLC): 2.55 µM
TGI (EKVX NSCLC): 17 µM
GI50 (COLO 205 colon): 2.83 µM
TGI (COLO 205 colon): 14.9 µM
